The record followed here is patent publication US9630922B2, “3-spiro-7-hydroxamic acid tetralins as HDAC inhibitors” (Forma Therapeutics, Inc., priority 2015, dated 2017).

Molecules are shown by their SMILES. Some results are limits rather than exact numbers.

For this assay, the target named is T1, HDAC6 (Homo sapiens, UniProt Q9UBN7).
T1 construct: Full length human recombinant HDAC6 protein was expressed in baculoviral system; made in house; host or cells: baculoviral system
T1 sequence (Q9UBN7 1-1215): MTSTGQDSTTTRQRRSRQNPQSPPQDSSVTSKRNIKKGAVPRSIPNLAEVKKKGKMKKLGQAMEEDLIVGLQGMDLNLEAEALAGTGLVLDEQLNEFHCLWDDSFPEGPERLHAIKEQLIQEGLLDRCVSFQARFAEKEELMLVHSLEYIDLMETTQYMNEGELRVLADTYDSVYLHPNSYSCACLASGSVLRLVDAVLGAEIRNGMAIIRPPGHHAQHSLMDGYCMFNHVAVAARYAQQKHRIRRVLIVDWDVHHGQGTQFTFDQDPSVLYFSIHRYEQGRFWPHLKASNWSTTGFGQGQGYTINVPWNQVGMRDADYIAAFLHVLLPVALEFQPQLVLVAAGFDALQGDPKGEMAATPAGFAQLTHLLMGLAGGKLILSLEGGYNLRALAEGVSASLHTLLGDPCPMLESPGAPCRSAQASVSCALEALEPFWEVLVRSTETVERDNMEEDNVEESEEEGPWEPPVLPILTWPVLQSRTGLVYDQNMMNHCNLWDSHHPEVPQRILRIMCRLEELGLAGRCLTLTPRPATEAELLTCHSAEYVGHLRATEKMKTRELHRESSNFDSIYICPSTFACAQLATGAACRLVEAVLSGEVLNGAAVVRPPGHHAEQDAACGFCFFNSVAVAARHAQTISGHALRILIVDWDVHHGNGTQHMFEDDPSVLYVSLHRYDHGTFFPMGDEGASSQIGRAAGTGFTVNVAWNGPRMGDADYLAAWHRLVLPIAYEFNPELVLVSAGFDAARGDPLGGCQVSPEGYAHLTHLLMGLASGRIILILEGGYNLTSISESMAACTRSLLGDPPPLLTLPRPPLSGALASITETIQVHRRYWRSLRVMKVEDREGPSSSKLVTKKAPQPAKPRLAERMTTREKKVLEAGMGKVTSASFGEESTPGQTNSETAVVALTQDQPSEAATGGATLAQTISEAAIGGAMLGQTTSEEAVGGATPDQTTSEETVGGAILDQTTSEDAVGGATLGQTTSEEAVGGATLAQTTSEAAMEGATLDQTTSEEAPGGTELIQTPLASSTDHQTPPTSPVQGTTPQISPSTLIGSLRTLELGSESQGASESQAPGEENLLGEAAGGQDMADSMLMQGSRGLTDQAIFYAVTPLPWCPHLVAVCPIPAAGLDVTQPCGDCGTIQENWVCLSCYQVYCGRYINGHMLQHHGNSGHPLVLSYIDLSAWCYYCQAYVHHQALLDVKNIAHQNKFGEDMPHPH
Put plainly: In vitro Histone Deacetylase Assay (enzymatic HDAC6 electrophoretic mobility shift assay). Type of assay: biochemical. Conditions: full length human recombinant HDAC6, 1 nM enzyme, 2 μM peptide substrate RHKK(Ac)-NH2, 25° C.; read-out: HDAC6 activity range. In a few lines: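 Full-length recombinant human HDAC6 (baculovirus-expressed, 1 nM) was incubated at 25 °C with 2 μM fluorescent RHKK(Ac)-NH2 peptide in HEPES pH 7.5, KCl, BSA, Triton X-100 and 1% DMSO, then SDS-quenched. Substrate and product were separated by microfluidic mobility shift, and IC50 came from 4-parameter fits of 12-point, 3-fold dilution curves.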
In general terms: In EMSA bound probe runs differently from free probe, usually more slowly.
In the case of `O=C(NO)c1ccc2c(c1)CC[C@]1(CCN(Cc3ccccc3Cl)C1=O)C2` [Compound I-40, (R)-1′-(2-chlorobenzyl)-N-hydroxy-2′-oxo-3,4-dihydro-1H-spiro[naphthalene-2,3′-pyrrolidine]-6-carboxamide], the IC50 was no more than 100 nM. For `O=C(NO)c1ccc2c(c1)CC[C@]1(CCN(Cc3cccc(Cl)c3)C1=O)C2` [Compound I-54, (R)-1′-(3-chlorobenzyl)-N-hydroxy-2′-oxo-3,4-dihydro-1H-spiro[napthalene-2,3′-pyrrolidine]-6-carboxamide] the value was no more than 100 nM. For `Cc1ccccc1CN1CC[C@]2(CCc3cc(C(=O)NO)ccc3C2)C1=O` [Compound I-38, (R)-N-hydroxy-1′-(2-methylbenzyl)-2′-oxo-3,4-dihydro-1H-spiro[naphthalene-2,3′-pyrrolidine]-6-carboxamide] the value was no more than 100 nM. For `CC(C)n1c(CN2CC[C@@]3(CCc4cc(C(=O)NO)ccc4C3)C2=O)nc2ccccc21` [Compound I-73, (S)-N-hydroxy-1′-((1-isopropyl-1H-benzo[d]imidazol-2-yl)methyl)-2′-oxo-3,4-dihydro-1H-spiro[naphthalene-2,3′-pyrrolidine]-6-carboxamide] the value was no more than 100 nM. For the compound `CN1CCC[C@]2(CCc3cc(C(=O)NO)ccc3C2)C1=O` (single isomer, unassigned) [Compound I-180], the IC50 was no more than 100 nM. For `CC(C)CCN1CC[C@@]2(CCc3cc(C(=O)NO)ccc3C2)C1=O` [Compound I-62, (S)-N-hydroxy-1′-isopentyl-2′-oxo-3,4-dihydro-1H-spiro[naphthalene-2,3′-pyrrolidine]-6-carboxamide] the value was 100 to 500 nM. For `CC(C)N1CC[C@]2(CCc3cc(C(=O)NO)ccc3C2)C1=O` [Compound I-24, (R)-N-hydroxy-1′-isopropyl-2′-oxo-3,4-dihydro-1H-spiro[naphthalene-2,3′-pyrrolidine]-6-carboxamide] the value was no more than 100 nM; for `Cc1cncc(N2CC[C@]3(CCc4cc(C(=O)NO)ccc4C3)C2=O)c1` [Compound I-135, (R)-N-hydroxy-1′-(5-methylpyridin-3-yl)-2′-oxo-3,4-dihydro-1H-spiro[naphthalene-2,3′-pyrrolidine]-6-carboxamide], no more than 100 nM; for `O=C(NO)c1ccc2c(c1)CC[C@@]1(CCN(Cc3ccccc3OC(F)F)C1=O)C2` [Compound I-87, (S)-1′-(2-(difluoromethoxy)benzyl)-N-hydroxy-2′-oxo-3,4-dihydro-1H-spiro[naphthalene-2,3′-pyrrolidine]-6-carboxamide], no more than 100 nM. For `O=C(NO)c1ccc2c(c1)CCC1(CCCN(Cc3ccccc3)C1=O)C2` (stereo not drawn) [Compound I-176, 1′-benzyl-N-hydroxy-2′-oxo-3,4-dihydro-1H-spiro[naphthalene-2,3′-piperidine]-6-carboxamide] the value was no more than 100 nM. As for `COCCCN1CC2(CCc3cc(C(=O)NO)ccc3C2)CC1=O` (single isomer, unassigned) [Compound I-219], the IC50 was no more than 100 nM. For `O=C(NO)c1ccc2c(c1)CCC1(CC(=O)N(CC(F)(F)F)C1)C2` (single isomer, unassigned) [Compound I-223] the value was no more than 100 nM; for `Cc1ncccc1N1CC[C@@]2(CCc3cc(C(=O)NO)ccc3C2)C1=O` [Compound I-132, (S)-N-hydroxy-1′-(2-methylpyridin-3-yl)-2′-oxo-3,4-dihydro-1H-spiro[naphthalene-2,3′-pyrrolidine]-6-carboxamide], no more than 100 nM; for `O=C(NO)c1ccc2c(c1)CCC1(CC(=O)N(c3cccnc3)C1)C2` (single isomer, unassigned) [Compound I-224], no more than 100 nM.

Regarding `O=C(NO)c1ccc2c(c1)CC[C@]1(CCN(C3CCC3)C1=O)C2` (single isomer, unassigned) [Compound I-171], the IC50 was no more than 100 nM. For `O=C(NO)c1ccc2c(c1)CCC1(CC(=O)N(c3cccnc3)C1)C2` (single isomer, unassigned) [Compound I-221] the value was no more than 100 nM; for `COCCN1CC[C@@]2(CCc3cc(C(=O)NO)ccc3C2)C1=O` [Compound I-64, (S)-N-hydroxy-1′-(2-methoxyethyl)-2′-oxo-3,4-dihydro-1H-spiro[naphthalene-2,3′-pyrrolidine]-6-carboxamide], 100 to 500 nM.

On to `O=C(NO)c1ccc2c(c1)CC[C@@]1(CCN(Cc3ccc(OC(F)(F)F)cc3)C1=O)C2` [Compound I-80, (S)-N-hydroxy-2′-oxo-1′-(4-(trifluoromethoxy)benzyl)-3,4-dihydro-1H-spiro[naphthalene-2,3′-pyrrolidine]-6-carboxamide], for which the IC50 was 100 to 500 nM. On to `CC(C)CN1CCCC2(CCc3cc(C(=O)NO)ccc3C2)C1=O` (single isomer, unassigned) [Compound I-189], for which the IC50 was no more than 100 nM. Regarding `O=C(NO)c1ccc2c(c1)CC[C@]1(CCN(c3cncc(Cl)c3)C1=O)C2` [Compound I-139, (R)-1′-(5-chloropyridin-3-yl)-N-hydroxy-2′-oxo-3,4-dihydro-1H-spiro[naphthalene-2,3′-pyrrolidine]-6-carboxamide], the IC50 was no more than 100 nM.

Consider `COCCCN1CCCC2(CCc3cc(C(=O)NO)ccc3C2)C1=O` (single isomer, unassigned) [Compound I-187], for which the IC50 is no more than 100 nM. For `Cn1c(CN2CC[C@]3(CCc4cc(C(=O)NO)ccc4C3)C2=O)nc2ccccc21` [Compound I-46, (R)-N-hydroxy-1′-((1-methyl-1H-benzo[d]imidazol-2-yl)methyl)-2′-oxo-3,4-dihydro-1H-spiro[naphthalene-2,3′-pyrrolidine]-6-carboxamide] the value was no more than 100 nM; for `O=C(NO)c1ccc2c(c1)CC[C@@]1(CCN(CC(=O)N3CCOCC3)C1=O)C2` [Compound I-71, (S)-N-hydroxy-1′-(2-morpholino-2-oxoethyl)-2′-oxo-3,4-dihydro-1H-spiro[naphthalene-2,3′-pyrrolidine]-6-carboxamide], 100 to 500 nM; for `O=C(NO)c1ccc2c(c1)CC[C@]1(CCN(C3CCCC3)C1=O)C2` [Compound I-163, (R)-1′-cyclopentyl-N-hydroxy-2′-oxo-3,4-dihydro-1H-spiro[naphthalene-2,3′-pyrrolidine]-6-carboxamide], no more than 100 nM. For `O=C(NO)c1ccc2c(c1)CC[C@]1(CCN(c3ccc(F)c(F)c3)C1=O)C2` [Compound I-119, (R)-1′-(3,4-difluorophenyl)-N-hydroxy-2′-oxo-3,4-dihydro-1H-spiro[naphthalene-2,3′-pyrrolidine]-6-carboxamide] the value was no more than 100 nM; for `CN1CCC2(CCc3cc(C(=O)NO)ccc3S2(=O)=O)C1=O` (stereo not drawn) [Compound I-244, N-hydroxy-1-methyl-2-oxospiro[pyrrolidine-3,2′-thiochromane]-6′-carboxamide 1′,1′-dioxide], greater than 500 nM; for `COc1ccc(CCN2CCC3(CCc4cc(C(=O)NO)ccc4C3)C2)cc1` (stereo not drawn) [Compound I-2, N-hydroxy-1′-(4-methoxyphenethyl)-3,4-dihydro-1H-spiro[naphthalene-2,3′-pyrrolidine]-6-carboxamide], 100 to 500 nM. `O=C(NO)c1ccc2c(c1)CCC1(CCN(c3cccnc3)C1=O)O2` (stereo not drawn) [Compound I-233, N-hydroxy-2′-oxo-1′-(pyridin-3-yl)spiro[chromane-2,3′-pyrrolidine]-6-carboxamide]: the IC50 was in the range of 100 to 500 nM. For `O=C(NO)c1ccc2c(c1)CCC1(CCN(CC3CCOCC3)C1=O)S2(=O)=O` (stereo not drawn) [Compound I-241, N-hydroxy-2-oxo-1-((tetrahydro-2H-pyran-4-yl)methyl)spiro[pyrrolidine-3,2′-thiochromane]-6′-carboxamide 1′,1′-dioxide] the value was greater than 500 nM.

Turning to `Cc1ncccc1N1CC[C@]2(CCc3cc(C(=O)NO)ccc3C2)C1=O` [Compound I-131, (R)-N-hydroxy-1′-(2-methylpyridin-3-yl)-2′-oxo-3,4-dihydro-1H-spiro[naphthalene-2,3′-pyrrolidine]-6-carboxamide], the IC50 is no more than 100 nM.
